# Assay results: patent publication US5378690A, “New renin-inhibitory oligopeptides, their preparation and their use” (Sankyo Company, Limited, priority 1986, dated 1995)
# Target: T1, human renin (Homo sapiens, UniProt P00797)
# T1 sequence (P00797 67-406): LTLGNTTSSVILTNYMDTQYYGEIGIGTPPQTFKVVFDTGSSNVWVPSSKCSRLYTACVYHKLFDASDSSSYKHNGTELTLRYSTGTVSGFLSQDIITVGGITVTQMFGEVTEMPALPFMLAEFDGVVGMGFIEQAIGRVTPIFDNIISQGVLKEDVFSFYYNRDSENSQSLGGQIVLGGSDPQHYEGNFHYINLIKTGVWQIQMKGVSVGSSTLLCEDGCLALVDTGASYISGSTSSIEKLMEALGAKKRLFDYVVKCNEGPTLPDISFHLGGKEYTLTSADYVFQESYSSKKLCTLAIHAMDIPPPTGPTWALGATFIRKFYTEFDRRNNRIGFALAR
# Test: Inhibition of renin activity
# Assay type: biochemical
# Details: 1×10^-6 M of the test compound, sheep angiotensinogen, pH 7.3, 10 minutes at 37° C., mean of 3 or 4 experiments
# Method: The ability of various compounds of the invention to inhibit the activity of renin was determined according to the following method, which follows essentially the procedure of Kokubu et al. [Hypertension, 5, 191-197 (1983)].
# Specifically, each test compound was dissolved in 60% v/v aqueous ethanol. Human renin activity in the presence and absence of each compound was measured using sheep angiotensinogen. The total volume of 1 ml of assay mixture contained 0.1 mole/litre phosphate buffer (pH 7.3), human renin (equivalent to 0.5 ng angiotensin I per ml per minute), sheep angiotensinogen (equivalent to 200 ng angiotensin I) 1×10^-6 M of the test compound, 6% v/v ethanol and angiotensinase inhibitors (10 mmole/litre sodium ethylenediaminetetraacetate and 3.4 mmole/litre 8-hydroxyquinoline). The mixture was allowed to react for 10 minutes at 37° C., and then the reaction was stopped by placing the reaction tube in a boiling water bath for 5 minutes. The mixture was then centrifuged and the supernatant (0.05-0.1 ml) was used to assay remaining angiotensin I.
# An identical experiment was carried out, as a control, except that the test compound was omitted. From the values obtained were calculated the % inhibition of renin activity achieved by each test compound. The results are shown in the following Table 9, in which the compounds of the invention are identified by the numbers of the Examples given hereafter in which are described their preparation. The values given are the mean of 3 or 4 experiments.
row,SMILES,Inhibitory Activity (%)
1,"O=C(C[C@H](O)[C@H](CC1CCCCC1)NC(=O)C(Cc1cscn1)NC(=O)[C@@H](CC(=O)N1CCOCC1)Cc1cccc2ccccc12)NCCN1CCOCC1 (mixture of isomers) [Example 2, N-{N-[(2R)-3-Morpholinocarbonyl-2-(1-naphthylmethyl)propionyl]-3-(4-thiazolyl)-DL-alanyl}-cyclostatin-(2-morpholinoethyl)amide]",91.2%
2,"CC1CN(C(=O)C[C@@H](Cc2cccc3ccccc23)C(=O)NC(Cc2cscn2)C(=O)N[C@@H](CC2CCCCC2)[C@@H](O)CC(=O)NCCN2CCOCC2)CC(C)O1 (mixture of isomers) [Example 8, N-{N-[(2R)-2-(1-Naphthylmethyl)-3-(2,6-dimethylmorpholinocarbocyl)propionyl]-3-(4-thiazolyl)-DL-alanyl}-cyclostatin-(2-morpholinoethyl)amide]",96.5%
3,"O=C(C[C@H](O)[C@H](CC1CCCCC1)NC(=O)C(Cc1cscn1)NC(=O)[C@@H](CC(=O)N1CCCCC1)Cc1cccc2ccccc12)NCCN1CCOCC1 (mixture of isomers) [Example 11, N-{N-[(2R)-2-(1-Naphthylmethyl)-3-(piperidinocarbonyl)propionyl]-3-(4-thiazolyl)-DL-alanyl}-cyclostatin-(2-morpholinoethyl)amide]",96.9%
4,"O=C(C[C@H](O)[C@H](CC1CCCCC1)NC(=O)C(Cc1cscn1)NC(=O)[C@@H](CC(=O)N1CCN(c2ccccc2)CC1)Cc1cccc2ccccc12)NCCN1CCOCC1 (mixture of isomers) [Example 15, N-{N-[(2R)-2-(1-Naphthylmethyl)-3-(4-phenyl-1-piperazinylcarbonyl)propionyl]-3-(4-thiazolyl)-DL-alanyl}-cyclostatin-(2-morpholinoethyl)amide]",96.3%
5,"O=C(C[C@H](O)[C@H](CC1CCCCC1)NC(=O)C(Cc1cscn1)NC(=O)[C@H](Cc1cccc2ccccc12)NC(=O)CCCN1CCOCC1)NCCN1CCOCC1 (mixture of isomers) [Example 42, N-55 N-[N-(4-Morpholinobutyryl)-3-(1-naphthyl -L-alanyl]-3-(4-thiazolyl)-DL-alanyl}-cyclostatin-(2-morpholinoethyl)amide]",96.7%
6,"O=C(C[C@H](O)[C@H](CC1CCCCC1)NC(=O)C(Cc1cscn1)NC(=O)[C@H](Cc1cccc2ccccc12)NC(=O)CN1CCOCC1)NCCN1CCCC1 (mixture of isomers) [Example 43, N-{N-[N-Morpholinoacetyl-3-(1-naphthyl)-L-alanyl]-(4-thiazolyl)-DL-alanyl]-cyclostatin-2-(1-pyrrolidinylethyl)amide]",91.2%
7,"O=C(C[C@H](O)[C@H](CC1CCCCC1)NC(=O)[C@H](Cc1ccno1)NC(=O)[C@@H](CC(=O)N1CCOCC1)Cc1cccc2ccccc12)NCCN1CCOCC1 [Example 3, N-{N-[(2R)-3-Morpholinocarbonyl-2-(1-naphthylmethyl)propionyl]-3-(5-isoxazolyl)-L-alanyl}-cyclostatin-(2-morpholinoethyl)amide]",92.2%
8,"O=C(C[C@@H](Cc1cccc2ccccc12)C(=O)N[C@@H](Cc1cscn1)C(=O)N[C@@H](CC1CCCCC1)[C@@H](O)CC(=O)NCCN1CCOCC1)NCCc1ccccc1 [Example 13, N-{N-[(2R)-2-(1-Naphthylmethyl)-3-(phenethylcarbamoyl)propionyl]-3-(4-thiazolyl)-L-alanyl}-cyclostatin-(2-morpholinoethyl)amide]",96.6%
9,CCC(C)[C@@H](CO)NC(=O)C[C@H](O)[C@H](CC1CCCCC1)NC(=O)[C@H](Cc1cscn1)NC(=O)[C@@H](CC(=O)N1CCOCC1)Cc1cccc2ccccc12 (some centres unmarked) [Example 31],98.2%
10,"CCN(CC(=O)N[C@@H](Cc1cccc2ccccc12)C(=O)N[C@@H](Cc1cscn1)C(=O)N[C@@H](CC1CCCCC1)[C@@H](O)CC(=O)NCCN1CCOCC1)Cc1ccccc1 [Example 64, N-{N-[N-(N-Benzyl-N-ethylaminoacetyl)-3-(1-naphthyl)-L-alanyl]-3-(4-thiazolyl)-L-alanyl}-cyclostatin-(2-morpholinoethyl)amide]",97.5%
11,"CC(C)N(CC(=O)N[C@@H](Cc1cccc2ccccc12)C(=O)N[C@@H](Cc1cscn1)C(=O)N[C@@H](CC1CCCCC1)[C@@H](O)CC(=O)NCCN1CCOCC1)Cc1ccccc1 [Example 65, N-{N-[N-(N-Benzyl-N-isopropylaminoacetyl)-3-(1-naphthyl)-L-alanyl]-3-(4-thiazolyl)-L-alanyl}-cyclostatin-(2-morpholinoethy)amide]",97.4%
12,"COc1ccccc1N1CCN(CC(=O)N[C@@H](Cc2cccc3ccccc23)C(=O)N[C@@H](Cc2cscn2)C(=O)N[C@@H](CC2CCCCC2)[C@@H](O)CC(=O)NCCN2CCOCC2)CC1 [Example 66, N-[N-{N-[4-(2-Methoxyphenyl)-1-piperazinyl]acetyl-3-(1-naphthyl)-L-alanyl}-3-(4-thiazolyl)-L-alanyl]-cyclostatin-(2-morpholinoethyl)amide]",95.7%

# Second part, the molecule after the results:
row,Inhibitory Activity (%),SMILES
1,98.3%,CCC(C)CNC(=O)C[C@H](O)[C@H](CC1CCCCC1)NC(=O)[C@H](Cc1cscn1)NC(=O)[C@H](Cc1cccc2ccccc12)NC(=O)CN1CCOCC1 (mixture of isomers) [Example 109]
2,97.7%,"CC(C)C[C@H](NC(=O)[C@H](Cc1cccc2ccccc12)NC(=O)CN(C)Cc1ccccc1)C(=O)N[C@@H](CC1CCCCC1)[C@@H](O)CC(=O)NCCCN1CCCC1=O [Example 73, N-{N-[N-(N-Benzyl-N-methylaminoacetyl)-3-(1-naphthyl)-L-alanyl]-L-leucyl}-cyclostatin-[3-(2-oxo-1-pyrrolidinyl)propyl]amide]"
3,98.1%,"CC[C@H](C)CNC(=O)C[C@H](O)[C@H](CC1CCCCC1)NC(=O)[C@H](Cc1cscn1)NC(=O)[C@H](Cc1cccc2ccccc12)NC(=O)CN1CCOCC1 [Example 98, N-{N-[N-Morpholinoacetyl-3-(1-naphthyl)-L-alanyl]-3-(4-thiazolyl)-L-alanyl}-cyclostatin-[(S)-2-methylbutyl]amide]"
4,96.1%,"CC[C@H](C)[C@@H](CN1CCOCC1)NC(=O)C[C@H](O)[C@H](CC1CCCCC1)NC(=O)[C@H](Cc1cscn1)NC(=O)[C@H](CC1CCCCC1)NC(=O)CN(C)Cc1ccccc1 [Example 100, N-{N-[N-(N-Benzyl-N-methylaminoacetyl)-3-cyclohexyl-L-alanyl]-3-(4-thiazolyl)-L-alanyl}-cyclostatin-[(1S,2S)-2-methyl-1-(morpholinomethyl)butyl]amide]"
5,94.9%,"CN(CC(=O)N[C@@H](CC1CCCCC1)C(=O)N[C@@H](Cc1cscn1)C(=O)N[C@@H](CC1CCCCC1)[C@@H](O)CC(=O)NCCN1CCOCC1)Cc1ccccc1 [Example 101, N-{N-[N-(N-Benzyl-N-methylaminoacetyl)-3-cyclohexyl-L-alanyl]-3-(4-thiazolyl)-L-alanyl}-cyclostatin-(2-morpholinoethyl)amide]"
6,98.6%,"CCCNC(=O)C[C@H](O)[C@H](CC1CCCCC1)NC(=O)[C@H](Cc1cscn1)NC(=O)[C@H](Cc1cccc2ccccc12)NC(=O)CN1CCOCC1 [Example 103, N-{N-[N-Morpholinoacetyl-3-(1-naphthyl)-L-alanyl]-3-(4-thiazolyl)-L-alanyl}-cyclostatin-propylamide]"
7,98.6%,"CCCCNC(=O)C[C@H](O)[C@H](CC1CCCCC1)NC(=O)[C@H](Cc1cscn1)NC(=O)[C@H](Cc1cccc2ccccc12)NC(=O)CN1CCOCC1 [Example 104, N-{N-[N-Morpholinoacetyl-3-(1-naphthyl)-L-alanyl]-3-(4-thiazolyl)-L-alanyl}-cyclostatin-butylamide]"
8,98.0%,"CC(C)CNC(=O)C[C@H](O)[C@H](CC1CCCCC1)NC(=O)[C@H](Cc1cscn1)NC(=O)[C@H](Cc1cccc2ccccc12)NC(=O)CN1CCOCC1 [Example 105, N-{N-[N-Morpholinoacetyl-3-(1-naphthyl)-L-alanyl]-3-(4-thiazolyl)-L-alanyl}-cyclostatin-isobutylamide]"
9,98.2%,CC(C)CN(CC(C)C)C(=O)C[C@H](O)[C@H](CC1CCCCC1)NC(=O)[C@H](Cc1cscn1)NC(=O)[C@H](Cc1cccc2ccccc12)NC(=O)CN1CCOCC1 [Example 106]
10,98.4%,"CCCCCNC(=O)C[C@H](O)[C@H](CC1CCCCC1)NC(=O)[C@H](Cc1cscn1)NC(=O)[C@H](Cc1cccc2ccccc12)NC(=O)CN1CCOCC1 [Example 107, N-{N-[N-Morpholinoacetyl-3-(1-naphthyl)-L-alanyl]-3-(4-thiazolyl)-L-alanyl}-cyclostatin-pentylamide]"
11,98.6%,CC(C)CCNC(=O)C[C@H](O)[C@H](CC1CCCCC1)NC(=O)[C@H](Cc1cscn1)NC(=O)[C@H](Cc1cccc2ccccc12)NC(=O)CN1CCOCC1 [Example 108]
